Results from US8871753B2, “Macrocyclic compounds and their use as kinase inhibitors” (Incyte Corporation, priority 2008, dated 2014).
Counter-ions that a name gives are not always drawn. Like-named read-outs stand apart in the source and are kept apart here.

Assays:
Assay type in all cases: biochemical
[1] = target: TYK2 (Homo sapiens, UniProt P29597); assay: TYK2 kinase inhibition (Table A1)
[2] = target: T1, human JAK3 (a.a. 781-1124) (Homo sapiens, UniProt P52333); assay: In vitro JAK kinase assay (HTRF, phosphorylation of a biotinylated peptide), JAK3
T1 construct: JAK3 (a.a. 781-1124); His tag (N); made in house; host or cells: insect cells (baculovirus)
T1 sequence (P52333 781-1124): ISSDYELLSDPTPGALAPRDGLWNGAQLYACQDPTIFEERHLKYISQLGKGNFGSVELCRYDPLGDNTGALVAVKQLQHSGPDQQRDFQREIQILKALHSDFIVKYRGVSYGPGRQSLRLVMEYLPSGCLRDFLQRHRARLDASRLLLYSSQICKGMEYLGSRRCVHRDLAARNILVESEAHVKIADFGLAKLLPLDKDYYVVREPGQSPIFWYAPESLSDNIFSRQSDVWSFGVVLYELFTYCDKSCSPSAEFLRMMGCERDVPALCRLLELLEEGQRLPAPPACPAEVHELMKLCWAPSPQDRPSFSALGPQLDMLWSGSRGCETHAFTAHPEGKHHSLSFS
Summary of the method: (§1)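 Kinase activity was measured as phosphorylation of a biotinylated peptide, with ATP at 90 μM for JAK1, 30 μM for JAK2 and 3 μM for JAK3. Reactions ran 1 hr at room temperature, were stopped with EDTA plus SA-APC and Eu-Py20, and were read by HTRF after 40 minutes of antibody binding.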

[3] = target: T2, human JAK1 (a.a. 837-1142) (Homo sapiens, UniProt P23458); assay: In vitro JAK kinase assay (HTRF, phosphorylation of a biotinylated peptide), JAK1; settings: read-out: JAK1 IC50
T2 construct: human JAK1 (a.a. 837-1142); His tag (N); made in house; host or cells: insect cells (baculovirus)
T2 sequence (P23458 849-1154): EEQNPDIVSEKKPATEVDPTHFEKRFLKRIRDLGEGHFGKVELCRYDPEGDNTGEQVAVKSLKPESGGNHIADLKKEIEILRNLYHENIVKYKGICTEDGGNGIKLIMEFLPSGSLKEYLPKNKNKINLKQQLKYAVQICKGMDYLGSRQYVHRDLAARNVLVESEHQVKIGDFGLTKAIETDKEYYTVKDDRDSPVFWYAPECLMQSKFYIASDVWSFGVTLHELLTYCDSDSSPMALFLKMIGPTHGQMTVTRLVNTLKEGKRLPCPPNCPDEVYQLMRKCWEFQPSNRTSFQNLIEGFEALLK
Summary of the method: as §1

[4] = target: T3, Recombinant Human Anaplastic Lymphoma Kinase (Homo sapiens, UniProt Q9UM73); assay: ALK HTRF kinase assay
T3 construct: purchased Invitrogen, Carlsbad, Calif
T3 sequence (Q9UM73 19-1620): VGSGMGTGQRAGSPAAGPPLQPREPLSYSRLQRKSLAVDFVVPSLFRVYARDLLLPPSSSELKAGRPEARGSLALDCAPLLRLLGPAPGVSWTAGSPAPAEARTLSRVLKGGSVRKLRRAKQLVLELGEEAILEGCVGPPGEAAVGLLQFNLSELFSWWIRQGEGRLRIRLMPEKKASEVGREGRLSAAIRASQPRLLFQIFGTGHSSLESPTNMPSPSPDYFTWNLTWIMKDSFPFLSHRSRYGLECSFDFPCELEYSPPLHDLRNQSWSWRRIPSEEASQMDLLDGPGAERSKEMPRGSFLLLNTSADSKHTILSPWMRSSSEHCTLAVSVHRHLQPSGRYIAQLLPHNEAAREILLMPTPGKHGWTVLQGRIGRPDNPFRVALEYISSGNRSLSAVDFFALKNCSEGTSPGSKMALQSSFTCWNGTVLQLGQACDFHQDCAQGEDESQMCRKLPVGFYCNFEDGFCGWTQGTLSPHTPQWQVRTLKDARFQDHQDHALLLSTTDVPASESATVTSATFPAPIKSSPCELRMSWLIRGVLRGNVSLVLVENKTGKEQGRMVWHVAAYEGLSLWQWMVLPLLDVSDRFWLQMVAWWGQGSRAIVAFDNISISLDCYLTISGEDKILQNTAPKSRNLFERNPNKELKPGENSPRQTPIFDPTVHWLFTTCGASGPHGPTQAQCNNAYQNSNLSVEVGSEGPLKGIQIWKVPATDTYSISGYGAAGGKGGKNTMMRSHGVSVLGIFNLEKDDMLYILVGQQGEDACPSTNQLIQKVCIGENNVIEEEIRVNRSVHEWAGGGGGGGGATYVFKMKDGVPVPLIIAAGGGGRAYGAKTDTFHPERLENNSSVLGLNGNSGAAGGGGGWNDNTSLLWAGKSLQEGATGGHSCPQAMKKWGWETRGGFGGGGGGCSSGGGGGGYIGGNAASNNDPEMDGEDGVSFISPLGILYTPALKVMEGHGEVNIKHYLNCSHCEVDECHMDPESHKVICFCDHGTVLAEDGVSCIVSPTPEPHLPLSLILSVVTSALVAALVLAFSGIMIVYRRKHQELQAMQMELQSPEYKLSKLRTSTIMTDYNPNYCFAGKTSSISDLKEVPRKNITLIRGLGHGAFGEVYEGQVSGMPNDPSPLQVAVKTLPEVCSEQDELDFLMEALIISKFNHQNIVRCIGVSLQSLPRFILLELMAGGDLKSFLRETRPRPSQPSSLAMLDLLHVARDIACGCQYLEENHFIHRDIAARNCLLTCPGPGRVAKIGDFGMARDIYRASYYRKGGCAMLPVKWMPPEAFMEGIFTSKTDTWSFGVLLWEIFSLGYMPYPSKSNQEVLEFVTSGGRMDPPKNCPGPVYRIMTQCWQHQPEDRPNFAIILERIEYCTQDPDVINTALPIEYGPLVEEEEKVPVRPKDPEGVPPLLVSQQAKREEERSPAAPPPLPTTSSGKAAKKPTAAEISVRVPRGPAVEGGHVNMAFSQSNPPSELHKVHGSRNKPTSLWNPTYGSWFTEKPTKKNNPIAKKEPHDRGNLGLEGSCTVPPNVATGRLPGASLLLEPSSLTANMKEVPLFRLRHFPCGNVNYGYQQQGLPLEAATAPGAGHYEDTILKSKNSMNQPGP
Summary of the method: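 Recombinant human ALK phosphorylated a biotinylated synthetic peptide. Phosphotyrosine was detected by TR-FRET between a Eu-labelled anti-phosphotyrosine antibody and streptavidin-allophycocyanin. IC50 values came from fitting signal against inhibitor concentration to a four-parameter logistic equation with variable Hill slope.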

[5] = target: T4, human JAK2 (a.a. 828-1132) (Homo sapiens, UniProt O60674); assay: In vitro JAK kinase assay (HTRF, phosphorylation of a biotinylated peptide), JAK2
T4 construct: JAK2 (a.a. 828-1132); His tag (N); made in house; host or cells: insect cells (baculovirus)
T4 sequence (O60674 828-1132): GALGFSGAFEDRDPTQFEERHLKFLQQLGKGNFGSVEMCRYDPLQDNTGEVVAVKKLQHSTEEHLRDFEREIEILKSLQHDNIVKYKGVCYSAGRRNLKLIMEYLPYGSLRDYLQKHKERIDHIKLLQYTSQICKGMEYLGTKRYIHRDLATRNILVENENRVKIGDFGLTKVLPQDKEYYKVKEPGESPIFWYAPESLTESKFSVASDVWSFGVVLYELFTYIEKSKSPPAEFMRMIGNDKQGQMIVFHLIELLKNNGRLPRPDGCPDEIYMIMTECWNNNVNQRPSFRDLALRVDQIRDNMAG
Summary of the method: as §1

[6] = percentage inhibition of the example compound at a concentration of 500 nM or 1 mM (not specified which)
[7] = method AA1 (3 μM ATP) or AA2 (1000 μM ATP), not stated per value
[8] = method AA1 (90 μM ATP) or AA2 (1000 μM ATP), not stated per value
[9] = compound at 500 nM or 1 mM, 90 μM ATP
[10] = method AA1 (30 μM ATP) or AA2 (1000 μM ATP), not stated per value
[11] = compound at a concentration of 500 nM or 1 mM (not specified), cells shown as percentage
[12] = Table B1, cells without percent sign

Sequence of TYK2 (P29597 whole entry): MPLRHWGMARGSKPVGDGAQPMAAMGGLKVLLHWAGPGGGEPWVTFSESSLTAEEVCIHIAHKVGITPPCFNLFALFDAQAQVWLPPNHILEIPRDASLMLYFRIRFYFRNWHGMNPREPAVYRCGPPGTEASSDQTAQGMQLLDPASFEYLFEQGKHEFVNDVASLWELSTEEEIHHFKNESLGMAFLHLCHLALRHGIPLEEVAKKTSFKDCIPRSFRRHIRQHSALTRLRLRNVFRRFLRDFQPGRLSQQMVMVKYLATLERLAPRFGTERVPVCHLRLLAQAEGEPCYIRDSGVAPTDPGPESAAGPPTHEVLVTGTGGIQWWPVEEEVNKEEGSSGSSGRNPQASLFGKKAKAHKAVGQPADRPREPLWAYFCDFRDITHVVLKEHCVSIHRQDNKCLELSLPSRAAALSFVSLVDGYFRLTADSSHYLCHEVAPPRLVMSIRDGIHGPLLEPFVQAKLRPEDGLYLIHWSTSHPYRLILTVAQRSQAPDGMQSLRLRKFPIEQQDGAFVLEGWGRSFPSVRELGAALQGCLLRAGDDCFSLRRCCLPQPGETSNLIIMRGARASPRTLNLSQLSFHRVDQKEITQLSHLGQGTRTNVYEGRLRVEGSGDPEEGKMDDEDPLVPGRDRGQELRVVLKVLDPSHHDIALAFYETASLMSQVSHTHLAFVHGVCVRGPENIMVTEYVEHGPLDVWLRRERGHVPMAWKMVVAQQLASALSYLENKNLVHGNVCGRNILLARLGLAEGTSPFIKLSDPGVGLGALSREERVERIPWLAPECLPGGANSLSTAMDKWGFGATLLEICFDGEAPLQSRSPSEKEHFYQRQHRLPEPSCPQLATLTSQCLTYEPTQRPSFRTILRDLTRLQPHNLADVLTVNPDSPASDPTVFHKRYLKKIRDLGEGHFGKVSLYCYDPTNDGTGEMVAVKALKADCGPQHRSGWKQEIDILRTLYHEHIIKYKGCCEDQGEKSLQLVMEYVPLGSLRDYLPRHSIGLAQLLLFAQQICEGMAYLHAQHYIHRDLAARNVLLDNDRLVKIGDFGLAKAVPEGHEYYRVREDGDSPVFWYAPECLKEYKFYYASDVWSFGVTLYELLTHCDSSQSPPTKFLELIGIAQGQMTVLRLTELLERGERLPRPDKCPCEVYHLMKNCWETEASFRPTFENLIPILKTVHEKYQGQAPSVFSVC

| SMILES | IC50 ([1]; Table B1) [nM] | IC50 ([2]; Table B1) [nM] | IC50 ([3]; Table B1) [nM] | IC50 ([5]; Table B1) [nM] | IC50 [1] [nM] | IC50 [2, 7] [nM] | IC50 [3, 8] [nM] | IC50 [5, 10] [nM] | other results |
| --- | --- | --- | --- | --- | --- | --- | --- | --- | --- |
| N#Cc1ccc(C(=O)N2CCC(CC(=O)Nc3ccc4cc3CCc3cccc(c3)Nc3ncc(Cl)c(n3)N4)CC2)cc1 [Example A186, N-[6-Chloro-2,4,8,22-tetraazatetracyclo[14.3.1.1(3,7).1(9,13)]docosa-1(20),3(22),4,6,9(21),10,12,16,18-nonaen-12-yl]-2-[1-(4-cyanobenzoyl)piperidin-4-yl]acetamide trifluoroacetate] |  |  |  |  | > 200 | > 200 | 58 | 185 | ALK % of inhibition at a concentration of 500 nM or 1 mM [4, 9]: 38% |
| O=C(CC1CCN(c2nncs2)CC1)Nc1ccc2cc1CCc1cncc(c1)Nc1ncc(Cl)c(n1)N2 [Example A174, tris(trifluoroacetate)] |  |  |  |  | 72 | > 1000 | 4.1 | 124 | ALK % of inhibition at a concentration of 500 nM or 1 mM [4, 9]: 33% |
| O=C1CCc2cccc(c2)Nc2nc(ncc2Cl)Nc2cccc(c2)N1 [Example D76, 6-Chloro-2,4,8,17,24-pentaazatetracyclo[16.3.1.1(3,7).1(9,13)]tetracosa-1(22),3(24),4,6,9(23),10,12,18,20-nonaen-16-one trifluoroacetate] |  |  |  |  |  |  |  |  | IC50 ([1]; Table D1): 13 nM; IC50 ([2]; Table D1): 117 nM; IC50 ([3]; Table D1): 11 nM; IC50 ([4]; Table D1, 90 μM ATP): 2050 nM; IC50 ([5]; Table D1): 18 nM |
| O=C(CC1CCN(S(=O)(=O)c2ccccc2C(F)(F)F)CC1)Nc1ccc2cc1CCc1cncc(c1)Nc1ncc(Cl)c(n1)N2 [Example A224, N-[6-Chloro-2,4,8,18,22-pentaazatetracyclo[14.3.1.1(3,7).1(9,13)]docosa-1(20),3(22),4,6,9(21),10,12,16,18-nonaen-12-yl]-2-(1-{[2-(trifluoromethyl)phenyl]sulfonyl}piperidin-4-yl)acetamide bis(trifluoroacetate)] |  |  |  |  | > 400 | > 400 | 14 | > 400 | ALK % of inhibition at a concentration of 500 nM or 1 mM [4, 9]: 30% |
| Oc1ccc2cc1Nc1nc(ncc1Cl)Nc1cccc(c1)CC2 [Example A26, 6-Chloro-2,4,8,22-tetraazatetracyclo[14.3.1.1(3,7).1(9,13)]docosa-1(20),3(22),4,6,9(21),10,12,16,18-nonaen-10-ol trifluoroacetate] |  |  |  |  | 45 | 9.2 | 36 | 11 | IC50 ([4]; 90 μM ATP): 350 nM |
| N#Cc1ccc(N2CCC(CC(=O)Nc3ccc4cc3CCc3cncc(c3)Nc3ncc(Cl)c(n3)N4)CC2)nc1 [Example A179, N-[6-Chloro-2,4,8,18,22-pentaazatetracyclo[14.3.1.1(3,7).1(9,13)]docosa-1(20),3(22),4,6,9(21),10,12,16,18-nonaen-12-yl]-2-[1-(5-cyanopyridin-2-yl)piperidin-4-yl]acetamide tris(trifluoroacetate)] |  |  |  |  | > 200 | > 200 | 18 | 83 | ALK % of inhibition at a concentration of 500 nM or 1 mM [4, 9]: 43% |

Second part, led by results:

| IC50 ([1]; Table B1) [nM] | IC50 ([2]; Table B1) [nM] | IC50 ([3]; Table B1) [nM] | IC50 ([5]; Table B1) [nM] | IC50 [1] [nM] | IC50 [2, 7] [nM] | IC50 [3, 8] [nM] | IC50 [5, 10] [nM] | SMILES | other results |
| --- | --- | --- | --- | --- | --- | --- | --- | --- | --- |
| 235 | > 400 | 47 | > 400 |  |  |  |  | O=C(Nc1ccc2cc1CCc1cncc(c1)Nc1ncc(Cl)c(n1)N2)N1CCN2CCCC2C1 (stereo not drawn) [Example B315, N-[6-Chloro-2,4,8,18,22-pentaazatetracyclo[14.3.1.1(3,7).1(9,13)]docosa-1(20),3(22),4,6,9(21),10,12,16,18-nonaen-12-yl]hexahydropyrrolo[1,2-a]pyrazine-2(1H)-carboxamide tris(trifluoroacetate)] | ALK % of inhibition at a concentration of 500 nM or 1 mM [4, 6]: 50% |
| 2.6 | 17 | 0.82 | 1.1 |  |  |  |  | CS(=O)(=O)N1CC[C@@H](NC(=O)Nc2ccc3cc2CCc2cccc(c2)Nc2ncc(Cl)c(n2)N3)C1 [Example B178, N-[6-Chloro-2,4,8,22-tetraazatetracyclo[14.3.1.1(3,7).1(9,13)]docosa-1(20),3(22),4,6,9(21),10,12,16,18-nonaen-12-yl]-N′-[(3R)-1-(methylsulfonyl)pyrrolidin-3-yl]urea trifluoroacetate] | ALK % of inhibition at a concentration of 500 nM or 1 mM [4, 11]: 24% |
| 0.5 | 11 | 0.35 | 0.14 |  |  |  |  | Cc1noc(C)c1S(=O)(=O)Nc1ccc2cc1CCc1cccc(c1)Nc1ncc(Cl)c(n1)N2 [Example B152, N-[6-Chloro-2,4,8,22-tetraazatetracyclo[14.3.1.1(3,7).1(9,13)]docosa-1(20),3(22),4,6,9(21),10,12,16,18-nonaen-12-yl]-3,5-dimethylisoxazole-4-sulfonamide trifluoroacetate] | IC50 [4, 12]: 430 nM |
| 33 | 151 | 7 | 20 |  |  |  |  | CCc1cccc(NC(=O)Nc2ccc3cc2CCc2cccc(c2)Nc2ncc(Cl)c(n2)N3)c1 [Example B99, N-[6-Chloro-2,4,8,22-tetraazatetracyclo[14.3.1.1(3,7).1(9,13)]docosa-1(20), 3(22),4,6,9(21),10,12,16,18-nonaen-12-yl]-N′-(3-ethylphenyl)urea trifluoroacetate] | ALK % of inhibition at a concentration of 500 nM or 1 mM [4, 11]: 37% |
| 26 | 81 | 4.9 | 11 |  |  |  |  | CC(C)c1ccccc1NC(=O)Nc1ccc2cc1CCc1cccc(c1)Nc1ncc(Cl)c(n1)N2 [Example B104, N-[6-Chloro-2,4,8,22-tetraazatetracyclo[14.3.1.1(3,7).1(9,13)]docosa-1(20), 3(22),4,6,9(21),10,12,16,18-nonaen-12-yl]-N′-(2-isopropylphenyl)urea trifluoroacetate] | ALK % of inhibition at a concentration of 500 nM or 1 mM [4, 11]: 55% |
| 356 | > 400 | 57 | > 400 |  |  |  |  | CC(=O)N1CCN(C(=O)Nc2ccc3cc2CCc2cncc(c2)Nc2ncc(Cl)c(n2)N3)CC1 [Example B317, 4-Acetyl-N-[6-chloro-2,4,8,18,22-pentaazatetracyclo[14.3.1.1(3,7).1(9,13)]docosa-1(20),3(22),4,6,9(21),10,12,16,18-nonaen-12-yl]piperazine-1-carboxamide bis(trifluoroacetate)] | ALK % of inhibition at a concentration of 500 nM or 1 mM [4, 6]: 50% |
| > 1000 | > 1000 | > 1000 | 91 |  |  |  |  | O=S(=O)(c1ccc(Cl)cc1)c1ccc(CN2CCN(Cc3cc4cc(c3)Nc3nc(ncc3Cl)Nc3cccc(c3)CC4)CC2)cc1 [Example B195, 6-Chloro-11-[(4-{4-[(4-chlorophenyl)sulfonyl]benzyl}piperazin-1-yl)methyl]-2,4,8,22-tetraazatetracyclo[14.3.1.1(3,7).1(9,13)]docosa-1(20),3(22),4,6,9(21),10,12,16,18-nonaene tris(trifluoroacetate)] | IC50 [4, 12]: > 10000 nM |
| 39 | 18 | 12 | 5.3 |  |  |  |  | O=C(Nc1ccc2cc1CCc1cccc(c1)Nc1ncc(Cl)c(n1)N2)C1CCC1 [Example B57, N-[6-Chloro-2,4,8,22-tetraazatetracyclo[14.3.1.1(3,7).1(9,13)]docosa-1(20), 3(22),4,6,9(21),10,12,16,18-nonaen-12-yl]cyclobutanecarboxamide hydrochloride] | IC50 [4, 12]: 2200 nM |
| > 1000 | 365 | 160 | 111 |  |  |  |  | O=C(Nc1ccc(Cl)cc1)c1cc2cc(c1)Nc1nc(ncc1Cl)Nc1cccc(c1)CC2 [Example B15, 6-Chloro-N-(4-chlorophenyl)-2,4,8,22-tetraazatetracyclo[14.3.1.1(3,7).1(9,13)]docosa-1(20),3(22),4,6,9(21),10,12,16,18-nonaene-11-carboxamide trifluoroacetate] | IC50 [4, 12]: > 1000 nM |
